{"source": "patent US20070149456A1", "about": "“Epithelial sodium channel inhibiting agents and uses therefor” (University of Pittsburgh, priority 2005, published 2007)", "key": {"wild-type ENaC": {"molecular_target": "T1, wild-type ENaC (Mus musculus, UniProt Q61180+Q9WU38+Q9WU39, DEL206-231)", "T1 construct": "expressed in transfected cells; host or cells: Xenopus laevis oocytes (cRNA injection)", "T1 sequence (Q61180 with tags, fused parts or gaps DEL206-231)": "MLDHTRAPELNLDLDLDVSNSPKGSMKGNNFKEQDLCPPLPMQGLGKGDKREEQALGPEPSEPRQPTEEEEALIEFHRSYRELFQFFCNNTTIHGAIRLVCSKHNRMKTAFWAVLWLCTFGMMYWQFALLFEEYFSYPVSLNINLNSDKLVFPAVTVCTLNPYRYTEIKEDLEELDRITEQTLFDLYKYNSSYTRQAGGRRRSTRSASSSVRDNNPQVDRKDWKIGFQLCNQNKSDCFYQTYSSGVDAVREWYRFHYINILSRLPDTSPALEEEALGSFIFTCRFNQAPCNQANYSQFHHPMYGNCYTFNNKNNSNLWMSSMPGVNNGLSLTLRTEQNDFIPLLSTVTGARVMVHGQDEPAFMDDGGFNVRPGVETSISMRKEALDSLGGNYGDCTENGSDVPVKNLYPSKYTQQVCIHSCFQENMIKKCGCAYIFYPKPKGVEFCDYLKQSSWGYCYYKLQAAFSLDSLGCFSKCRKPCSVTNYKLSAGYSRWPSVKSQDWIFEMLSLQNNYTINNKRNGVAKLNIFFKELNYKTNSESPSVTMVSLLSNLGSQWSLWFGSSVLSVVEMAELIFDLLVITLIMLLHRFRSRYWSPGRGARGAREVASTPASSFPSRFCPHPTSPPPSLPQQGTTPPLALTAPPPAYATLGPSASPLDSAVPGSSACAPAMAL", "T1 sequence (Q9WU38 1-638)": "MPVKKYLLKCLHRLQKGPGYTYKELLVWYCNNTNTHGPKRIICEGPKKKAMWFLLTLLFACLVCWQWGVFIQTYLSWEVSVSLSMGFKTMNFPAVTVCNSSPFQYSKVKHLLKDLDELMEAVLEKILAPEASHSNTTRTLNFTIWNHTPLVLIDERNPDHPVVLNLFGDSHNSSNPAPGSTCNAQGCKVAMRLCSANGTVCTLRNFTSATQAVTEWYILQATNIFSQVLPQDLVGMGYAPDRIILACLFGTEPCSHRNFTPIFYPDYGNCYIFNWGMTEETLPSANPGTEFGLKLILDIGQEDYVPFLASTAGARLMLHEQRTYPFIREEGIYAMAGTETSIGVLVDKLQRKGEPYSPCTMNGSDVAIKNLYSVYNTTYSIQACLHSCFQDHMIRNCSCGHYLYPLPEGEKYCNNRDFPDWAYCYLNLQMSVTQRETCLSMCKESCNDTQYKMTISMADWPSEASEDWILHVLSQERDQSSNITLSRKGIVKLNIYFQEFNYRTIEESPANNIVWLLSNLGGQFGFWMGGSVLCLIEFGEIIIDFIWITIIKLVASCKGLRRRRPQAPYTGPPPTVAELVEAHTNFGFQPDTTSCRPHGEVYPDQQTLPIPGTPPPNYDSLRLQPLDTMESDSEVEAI", "T1 sequence (Q9WU39 1-655)": "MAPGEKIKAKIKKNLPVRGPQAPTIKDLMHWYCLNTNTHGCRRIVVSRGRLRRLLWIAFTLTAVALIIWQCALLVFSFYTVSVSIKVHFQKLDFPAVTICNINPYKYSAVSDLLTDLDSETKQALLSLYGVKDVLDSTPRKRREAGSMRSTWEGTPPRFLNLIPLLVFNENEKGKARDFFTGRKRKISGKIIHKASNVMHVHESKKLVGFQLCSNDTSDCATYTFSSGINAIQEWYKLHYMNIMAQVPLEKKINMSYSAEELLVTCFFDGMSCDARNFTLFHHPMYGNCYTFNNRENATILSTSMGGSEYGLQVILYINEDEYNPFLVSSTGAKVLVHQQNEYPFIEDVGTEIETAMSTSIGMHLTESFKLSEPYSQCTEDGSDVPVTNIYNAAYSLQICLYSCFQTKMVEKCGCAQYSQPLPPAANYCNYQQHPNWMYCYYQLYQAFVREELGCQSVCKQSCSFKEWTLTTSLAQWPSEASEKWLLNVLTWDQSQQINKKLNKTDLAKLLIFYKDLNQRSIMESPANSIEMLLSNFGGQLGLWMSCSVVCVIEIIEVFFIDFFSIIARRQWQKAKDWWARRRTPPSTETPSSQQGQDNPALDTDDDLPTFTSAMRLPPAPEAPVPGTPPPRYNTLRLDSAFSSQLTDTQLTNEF", "assay": "Single channel cell-attached patch clamp in oocytes expressing wild-type ENaC, pipette back filled with peptide", "assay_type": "cell-based", "procedure": "Single Channel Studies—Bath and pipette solutions contained (in mM) 110 LiCl, 2 CaCl2, 2 KCl, and 10 Hepes, pH 7.4. Experiments were performed as previously described (Carattino, M. D., Sheng, S., and Kleyman, T. R. (2005), Mutations in the pore region modify epithelial sodium channel gating by shear stress, J Biol. Chem. 280, 4393-4401 33). Single channel currents were recorded in the cell-attached configuration of patch clamp, acquired at 5 kHz and filtered at 1 kHz by a 4-pole low pass Bessel filter. Single channel currents were further filtered at 100-200 Hz with a Gaussian filter for display and analysis. Recordings were performed at an applied pipette potential of +60 mV.\nFor experiments performed with α-26, the tip of the pipette was filled with standard patch solution. Pipette resistances were similar in control (7.8±0.4 MΩ) and α-26-treated patches (6.9±0.6 MΩ) (p=0.30, unpaired t test). […] Unitary currents, at an applied pipette potential of +60 mV, were similar in both control (0.42±0.2 pA, n=5) and α-26-containing patches (0.39±0.2 pA, n=7) (p=0.32, unpaired t test). […] At the beginning of the experiment open times were similar to that observed in controls (FIG. 4B). Over the course of the experiment openings decreased and were shorter in duration compared with control until channels were fully closed. […]"}, "[1]": {"molecular_target": "T2, endogenous ENaC in mpkCCDc14 cells (Mus musculus, UniProt Q61180+Q9WU38+Q9WU39)", "T2 construct": "endogenous ENaC in a mouse cortical collecting duct (mpkCCDc14) cell line; endogenous in cells; host or cells: mpkCCDc14 mouse cortical collecting duct cell line", "settings": "mouse CCD cells; stated jointly with human airway; Carattino 2006; read-out: IC50, inhibition of ENaC activity; cited from earlier work"}}, "note": "Entries after “also recorded” stand apart in the source; their conditions may differ.", "data": [{"substance": "Ac-DLRGALPHPLQRLRTPPPPNPARSAR-NH2 [α-26]", "values": [{"measurement": "unitary currents", "setting": "wild-type ENaC; applied pipette potential +60 mV, α-26 10 μM in pipette", "result": "0.39±0.2", "unit": "pA"}, {"measurement": "product of the number of channels and open probability (NPo) compared with controls", "setting": "wild-type ENaC; pipette backfilled with α-26 10 μM", "result": "reduces ENaC open probability; also recorded: reduction"}, {"measurement": "IC50", "setting": "[1]", "result": "50 to 100", "unit": "µM"}]}]}
